Activity calls are given as the source filed them. Bounds are passed on as bounds.

This note sets out measurements from ChEMBL document CHEMBL1201862, “PubChem BioAssay data set” (2004).

In test [1] the target is T1, Mannose-6-phosphate isomerase (Homo sapiens, UniProt P34949).
T1 sequence (P34949 whole entry): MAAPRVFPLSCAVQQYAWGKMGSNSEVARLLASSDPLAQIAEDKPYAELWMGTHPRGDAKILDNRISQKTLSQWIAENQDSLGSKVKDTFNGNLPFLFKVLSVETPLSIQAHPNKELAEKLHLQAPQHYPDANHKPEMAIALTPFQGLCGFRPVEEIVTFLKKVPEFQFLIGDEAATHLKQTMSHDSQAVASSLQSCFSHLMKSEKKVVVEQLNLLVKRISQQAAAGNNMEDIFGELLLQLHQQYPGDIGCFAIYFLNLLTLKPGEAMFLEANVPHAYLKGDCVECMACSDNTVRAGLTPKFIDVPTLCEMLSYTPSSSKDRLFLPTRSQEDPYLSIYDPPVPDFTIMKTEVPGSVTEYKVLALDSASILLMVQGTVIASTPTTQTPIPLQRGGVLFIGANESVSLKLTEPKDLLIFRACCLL
Kind of test: Confirmation of compounds inhibiting phosphomannose isomerase (PMI) via a fluorescence intensity assay using a high concentration of mannose 6-phosphate. [Related pubchem assays (depositor defined):AID1209, AID1220, AID1545, AID1553, AID1620].

In test [2] the target is T1, Mannose-6-phosphate isomerase. Put plainly: phosphomannose isomerase inhibition – biochemical, fluorescence intensity, confirmation (AID 1535).
Test [3] addresses Alkaline phosphatase, placental type (Homo sapiens, UniProt P05187). Put plainly: human placental alkaline phosphatase inhibition – biochemical, luminescence, confirmation (AID 1512). The class given is functional.
For test [4], the target named is Sphingosine 1-phosphate receptor 4 (Homo sapiens, UniProt O95977). Kind of test: potency of S1P4 activators – cell-based, fluorescence, synthesized compounds, late-stage follow-up (AID 463107). The class given is functional.
Sphingosine 1-phosphate receptor 4, sequence (O95977 whole entry): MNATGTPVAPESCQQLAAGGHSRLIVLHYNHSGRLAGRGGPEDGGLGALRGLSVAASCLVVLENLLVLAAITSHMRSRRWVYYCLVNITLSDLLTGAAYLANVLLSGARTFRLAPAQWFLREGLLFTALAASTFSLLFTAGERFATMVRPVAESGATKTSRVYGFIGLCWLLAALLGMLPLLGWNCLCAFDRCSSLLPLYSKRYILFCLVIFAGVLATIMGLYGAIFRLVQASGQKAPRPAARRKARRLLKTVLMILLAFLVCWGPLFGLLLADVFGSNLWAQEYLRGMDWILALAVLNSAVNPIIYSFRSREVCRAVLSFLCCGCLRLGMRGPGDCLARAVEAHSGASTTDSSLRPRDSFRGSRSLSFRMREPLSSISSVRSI
Test [5] in a line: NIH/3T3 cell viability loss – mouse embryonic fibroblasts, dry powder, set 2, cytotoxicity control, dose response (AID 493247). The note with it: Fibroblast. It counts as functional, cell-based.
The subject of the next test is Trypanosoma cruzi. Kind of test: anti-trypanosomal activity in host cells – cell-based, plate reader, dry powder, set 3, dose response (AID 493197). It counts as functional.
In test [6] the target is CAAX prenyl protease 2 (Saccharomyces cerevisiae S288c, UniProt Q03530). It counts as biochemical.
CAAX prenyl protease 2 (Saccharomyces cerevisiae S288c, UniProt Q03530), sequence (Q03530 whole entry): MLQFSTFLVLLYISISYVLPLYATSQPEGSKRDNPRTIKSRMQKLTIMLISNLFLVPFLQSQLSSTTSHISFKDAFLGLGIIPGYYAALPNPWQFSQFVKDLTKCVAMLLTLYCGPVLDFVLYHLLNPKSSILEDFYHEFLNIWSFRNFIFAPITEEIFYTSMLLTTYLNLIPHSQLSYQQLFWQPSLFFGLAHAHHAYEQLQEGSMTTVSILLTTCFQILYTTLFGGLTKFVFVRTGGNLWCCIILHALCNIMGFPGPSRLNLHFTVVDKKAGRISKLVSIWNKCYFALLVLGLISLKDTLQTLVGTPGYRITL
The target of test [7] is CAAX prenyl protease 2 (Homo sapiens, UniProt Q9Y256). Put plainly: inhibition of Ras-converting CAAX protease Rce1 – biochemical, yeast membranes, quenched-peptide fluorescence, cherry-pick, dose response (AID 588849).
CAAX prenyl protease 2 (Homo sapiens, UniProt Q9Y256), sequence (Q9Y256 whole entry): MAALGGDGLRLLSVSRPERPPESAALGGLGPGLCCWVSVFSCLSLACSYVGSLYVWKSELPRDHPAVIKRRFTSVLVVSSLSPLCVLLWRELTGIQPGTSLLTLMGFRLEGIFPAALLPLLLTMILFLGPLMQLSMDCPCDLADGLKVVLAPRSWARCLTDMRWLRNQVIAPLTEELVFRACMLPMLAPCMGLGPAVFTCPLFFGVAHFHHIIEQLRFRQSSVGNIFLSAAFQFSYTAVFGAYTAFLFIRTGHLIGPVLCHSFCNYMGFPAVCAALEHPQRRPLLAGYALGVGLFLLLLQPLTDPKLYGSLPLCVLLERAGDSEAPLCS
In test [8] the target is T2, Tyrosine-protein phosphatase non-receptor type 7 (Homo sapiens, UniProt P35236).
T2 sequence (P35236 whole entry): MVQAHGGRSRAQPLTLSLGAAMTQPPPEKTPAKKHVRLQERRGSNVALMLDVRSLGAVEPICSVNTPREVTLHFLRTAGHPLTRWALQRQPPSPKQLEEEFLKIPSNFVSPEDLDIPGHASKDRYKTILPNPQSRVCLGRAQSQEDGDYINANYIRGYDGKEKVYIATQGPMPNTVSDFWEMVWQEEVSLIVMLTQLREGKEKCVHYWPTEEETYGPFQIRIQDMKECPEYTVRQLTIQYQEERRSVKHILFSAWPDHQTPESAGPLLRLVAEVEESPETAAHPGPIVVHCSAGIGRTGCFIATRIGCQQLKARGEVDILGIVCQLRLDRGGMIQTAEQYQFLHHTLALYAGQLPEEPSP
The class given is functional.

The target of test [9] is Glyceraldehyde-3-phosphate dehydrogenase (Homo sapiens, UniProt P04406).
Glyceraldehyde-3-phosphate dehydrogenase, sequence (P04406 whole entry): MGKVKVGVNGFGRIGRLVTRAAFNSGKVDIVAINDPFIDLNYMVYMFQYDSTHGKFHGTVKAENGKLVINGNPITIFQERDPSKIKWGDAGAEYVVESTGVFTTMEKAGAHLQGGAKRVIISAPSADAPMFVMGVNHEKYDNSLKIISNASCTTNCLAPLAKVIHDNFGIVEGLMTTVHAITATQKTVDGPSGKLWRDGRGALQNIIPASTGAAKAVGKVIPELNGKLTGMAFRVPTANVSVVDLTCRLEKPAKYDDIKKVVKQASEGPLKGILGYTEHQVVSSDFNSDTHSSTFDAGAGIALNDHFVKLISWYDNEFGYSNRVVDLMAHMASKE
Test [10] addresses T3, Dual specificity protein phosphatase 6 (Rattus norvegicus, UniProt Q64346).
T3 sequence (Q64346 whole entry): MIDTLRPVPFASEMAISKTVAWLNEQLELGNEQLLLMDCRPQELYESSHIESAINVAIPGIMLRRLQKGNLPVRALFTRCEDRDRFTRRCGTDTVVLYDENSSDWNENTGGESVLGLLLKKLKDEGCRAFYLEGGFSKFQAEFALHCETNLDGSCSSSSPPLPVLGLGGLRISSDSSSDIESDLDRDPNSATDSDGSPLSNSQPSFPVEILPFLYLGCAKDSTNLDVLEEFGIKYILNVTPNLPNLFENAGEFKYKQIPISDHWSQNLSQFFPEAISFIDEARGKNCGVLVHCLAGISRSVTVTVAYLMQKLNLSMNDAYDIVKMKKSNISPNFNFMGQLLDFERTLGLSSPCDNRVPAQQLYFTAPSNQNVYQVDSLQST

Test [11] has as its target T4, Dual specificity protein phosphatase 3 (Homo sapiens, UniProt P51452). Put plainly: SAR VHR1 Fluorescent Assay for In Vitro dose response studies. [Related pubchem assays (depositor defined):AID1654, AID1661, AID1878, AID1992, AID2004, AID2070, AID2085]. The class given is functional.
Test [12] has as its target T4, Dual specificity protein phosphatase 3. Put plainly: MOA VHR1 Fluorescent secondary assay for identification of redox-state modulating compounds. [Related pubchem assays (depositor defined):AID1654, AID1661, AID1878, AID1957].
The target of test [13] is T2, Tyrosine-protein phosphatase non-receptor type 7. Put plainly: redox-active compounds inhibiting HePTP phosphatase – biochemical, fluorescence, mechanism study (AID 2068). It counts as functional.
The target in test [14] is T3, Dual specificity protein phosphatase 6. The class given is functional.
Test [15] in a line: cells. The class given is functional, cell-based.
The nature of test [16]: Trypanosoma cruzi growth suppression in host cells – NIH3T3 host cells, beta-gal luminescence, confirmation (AID 2044).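 Also: intracellular parasites grown in NIH/3T3 mouse fibroblasts as host cells; luminescent beta-galactosidase reporter signal from transgenic T. cruzi replicating inside host cells; inhibitors lower the luminescence signal.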 It counts as functional, cell-based.
A short description of test [17]: cells. It counts as functional, cell-based. The source holds these as a separate data set.
In test [18] the target is T5, Kappa-type opioid receptor (Homo sapiens, UniProt P41145). It counts as functional.
T5 sequence (P41145 whole entry): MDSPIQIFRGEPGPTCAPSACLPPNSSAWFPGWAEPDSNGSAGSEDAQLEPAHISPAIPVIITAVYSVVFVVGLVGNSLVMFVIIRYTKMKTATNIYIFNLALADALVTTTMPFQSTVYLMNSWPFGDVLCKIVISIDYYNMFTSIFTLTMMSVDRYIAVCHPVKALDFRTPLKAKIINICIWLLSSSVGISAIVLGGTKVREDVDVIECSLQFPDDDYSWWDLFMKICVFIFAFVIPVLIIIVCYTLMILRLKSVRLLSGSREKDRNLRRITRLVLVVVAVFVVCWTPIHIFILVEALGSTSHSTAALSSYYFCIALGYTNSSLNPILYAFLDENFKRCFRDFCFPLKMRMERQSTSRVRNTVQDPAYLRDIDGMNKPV
Test [19] can be described thus: NIH3T3 cell viability loss – ATP luminescence, mouse fibroblasts, counter-screen, dose response (AID 2010).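 Also: cells exposed to compound for about 90 hours before reading.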 It counts as functional, cell-based.
For a further test, the target named is Beta-galactosidase (Escherichia coli, UniProt Q8VNN2). It counts as functional.
Beta-galactosidase, sequence (Q8VNN2 whole entry): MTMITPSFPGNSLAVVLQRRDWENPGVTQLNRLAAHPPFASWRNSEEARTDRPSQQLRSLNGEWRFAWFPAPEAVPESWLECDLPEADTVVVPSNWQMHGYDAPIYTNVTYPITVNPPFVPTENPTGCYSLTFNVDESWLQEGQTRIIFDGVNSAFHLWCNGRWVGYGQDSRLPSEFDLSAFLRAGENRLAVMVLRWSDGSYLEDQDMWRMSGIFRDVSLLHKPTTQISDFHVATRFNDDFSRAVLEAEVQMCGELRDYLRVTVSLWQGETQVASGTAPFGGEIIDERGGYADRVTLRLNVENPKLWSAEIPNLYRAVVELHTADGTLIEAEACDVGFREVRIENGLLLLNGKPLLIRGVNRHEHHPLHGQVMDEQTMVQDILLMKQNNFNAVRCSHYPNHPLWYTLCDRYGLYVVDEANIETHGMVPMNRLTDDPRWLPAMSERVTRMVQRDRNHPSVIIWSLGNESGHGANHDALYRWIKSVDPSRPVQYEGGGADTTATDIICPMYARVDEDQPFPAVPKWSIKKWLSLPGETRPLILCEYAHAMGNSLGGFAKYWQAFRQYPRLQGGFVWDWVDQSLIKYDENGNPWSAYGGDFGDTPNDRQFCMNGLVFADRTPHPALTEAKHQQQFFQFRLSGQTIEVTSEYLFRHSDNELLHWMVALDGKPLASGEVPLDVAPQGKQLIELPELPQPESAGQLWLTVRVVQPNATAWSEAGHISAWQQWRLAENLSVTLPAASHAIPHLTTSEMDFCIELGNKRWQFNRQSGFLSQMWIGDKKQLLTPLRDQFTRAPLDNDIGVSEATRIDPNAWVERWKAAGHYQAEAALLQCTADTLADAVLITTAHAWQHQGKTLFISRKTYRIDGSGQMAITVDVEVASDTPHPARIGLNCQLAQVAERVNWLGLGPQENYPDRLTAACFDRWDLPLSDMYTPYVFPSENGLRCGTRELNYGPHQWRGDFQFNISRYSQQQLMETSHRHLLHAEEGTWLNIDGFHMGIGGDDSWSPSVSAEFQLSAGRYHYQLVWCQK
In test [20] the target is T5, Kappa-type opioid receptor. The class given is functional. The source holds these as a separate data set.
Test [21] addresses T6, Microphthalmia-associated transcription factor (Homo sapiens, UniProt O75030).
T6 sequence (O75030 whole entry): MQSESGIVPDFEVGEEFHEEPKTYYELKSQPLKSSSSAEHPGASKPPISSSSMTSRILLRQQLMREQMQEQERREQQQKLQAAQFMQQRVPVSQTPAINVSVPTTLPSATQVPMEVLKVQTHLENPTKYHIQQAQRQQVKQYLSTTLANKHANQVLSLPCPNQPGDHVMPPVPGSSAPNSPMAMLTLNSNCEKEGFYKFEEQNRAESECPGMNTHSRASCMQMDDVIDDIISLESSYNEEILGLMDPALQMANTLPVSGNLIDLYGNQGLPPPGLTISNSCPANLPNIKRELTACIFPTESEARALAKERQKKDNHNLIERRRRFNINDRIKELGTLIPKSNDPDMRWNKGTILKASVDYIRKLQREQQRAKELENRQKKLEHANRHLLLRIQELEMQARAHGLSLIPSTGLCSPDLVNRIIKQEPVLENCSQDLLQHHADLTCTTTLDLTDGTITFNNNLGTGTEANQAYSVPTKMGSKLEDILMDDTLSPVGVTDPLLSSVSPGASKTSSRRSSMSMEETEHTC
Put plainly: reducers of TRPM1 reporter luminescence, concentration series – cell-based, SK-MEL-5, cherry-picked, set 3, MITF inhibitor project, dose response (AID 493073).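 Also: SK-MEL-5 melanoma cells with luciferase driven by the MITF target TRPM1 promoter.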 It counts as functional.

The next test concerns INS1. Put plainly: INS-1E survival protection against cytokine death – cell-based, luminescence, retest, dose response (AID 449756).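 Also: cell death triggered by IL-1 beta plus TNF-alpha plus IFN-gamma mixture; protective hits raise ATP signal compared with cytokine alone wells.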 It counts as functional. Conditions: Rattus norvegicus.
A further test relates to Vero. Kind of test: cells. It counts as functional. The note with it: Chlorocebus sabaeus.

T4 sequence (P51452 whole entry): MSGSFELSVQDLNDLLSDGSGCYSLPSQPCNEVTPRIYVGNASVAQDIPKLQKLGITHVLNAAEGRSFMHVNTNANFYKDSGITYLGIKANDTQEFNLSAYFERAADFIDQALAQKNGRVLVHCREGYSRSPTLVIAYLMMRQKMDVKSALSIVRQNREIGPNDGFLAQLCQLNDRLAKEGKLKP
Alkaline phosphatase, placental type, sequence (P05187 whole entry): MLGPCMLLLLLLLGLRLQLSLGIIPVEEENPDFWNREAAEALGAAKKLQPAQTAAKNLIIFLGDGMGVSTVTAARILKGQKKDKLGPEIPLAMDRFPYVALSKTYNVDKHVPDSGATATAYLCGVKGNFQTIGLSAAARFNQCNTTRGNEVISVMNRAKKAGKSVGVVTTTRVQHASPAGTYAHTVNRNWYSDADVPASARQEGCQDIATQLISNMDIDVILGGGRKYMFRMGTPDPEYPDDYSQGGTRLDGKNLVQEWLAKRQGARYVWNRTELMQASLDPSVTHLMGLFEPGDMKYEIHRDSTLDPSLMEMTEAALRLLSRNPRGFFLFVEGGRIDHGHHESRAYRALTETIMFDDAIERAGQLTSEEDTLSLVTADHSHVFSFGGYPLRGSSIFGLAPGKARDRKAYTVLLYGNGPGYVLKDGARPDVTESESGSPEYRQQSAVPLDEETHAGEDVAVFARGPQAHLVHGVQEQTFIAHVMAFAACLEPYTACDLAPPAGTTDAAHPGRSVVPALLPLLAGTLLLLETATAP

Consider `CCCCN1C(=O)/C(=N\Nc2ccccc2O)c2ccccc21`, for which the IC50 in [1], in test [2] and in [3] was > 100 µM (inactive) throughout.

Turning to `Cc1ccc(OCCOc2ccc(C)nc2[N+](=O)[O-])c([N+](=O)[O-])n1`, the EC50 in test [4] was > 50 µM (inactive).

In the case of `O=C(N/N=C/c1ccc([N+](=O)[O-])o1)c1ccccn1`, the AC50 is 28 µM (active) in [5] and 1.47 µM (active) in the test on Trypanosoma cruzi.

Consider `Cc1cc(C)nc(SCc2cn3c(C)cc(C)nc3n2)n1`, for which the AC50 at CAAX prenyl protease 2 [6] is 35.7 µM (active); on CAAX prenyl protease 2 [7] it was 35.2 µM (active).

For `O=c1/c(=C/c2ccc(-c3ccccc3[N+](=O)[O-])o2)sc2nc3cc(Br)cnc3n12`, the IC50 is 43.9 µM (active) in test [8]; > 100 µM (not active) in test [9]; 49 µM (active) in test [10]; 12.1 µM (active) in test [11]; 5.53 µM (active) in test [12]; 4.13 µM (active) in test [13]. In [14], the IC50 is 55.5 µM (active).

In the case of `C/C(=N\NC(=O)Cc1ccc(Cl)cc1)c1ccccn1`, the EC50 in the test “cells [15]” is 54.9 µM (active); in test [16], 0.635 µM (active); in “cells [17]” it was 57.6 µM (active); in test [19] it was < 6 µM (inconclusive); at Beta-galactosidase, > 31.5 µM (inactive). Besides, the IC50 in test [18] is 5.02 µM (active); in test [20], greater than 32 µM. The results for the AC50 (in test [21]; in the test with INS1) were 4.22 µM (active) and 1.05 µM (active), respectively. Besides, the CC50 in the test with Vero is 2.29 µM (active).
